Assay results reported in patent US7323461B2, “Use of methylene blue and related compounds to prevent or reverse an exaggerated hemodynamic reaction” (Montreal Heart Institute, priority 2002, dated 2008).
Entries after “also recorded” stand apart in the source; their conditions may differ.

What was measured:
[1] = Hemodynamic effects of methylene blue on hypotensive pigs (LCX artery occluded, sildenafil citrate plus nitroglycerin); type: in vivo, pig; conditions: LCX balloon occlusion, 100 mg sildenafil citrate via esophagus tube, 0.2 mg nitroglycerin i.v. bolus along with MB bolus 3 mg/kg
Procedure: (§1) Pigs weighing between 20 and 25 kg were anesthetized in accordance with the standard procedure of the Canadian Council on Animal Care Regulations. After baseline hemodynamic measurements, the left circumflex (LCX) artery was occluded using a catheter balloon so as to mimic the condition of patients with cardiovascular disease. As soon as the animal was stable, a bolus injection of nitroglycerin (0.2 mg) was given intravenously in order to observe the effect of nitroglycerin alone on the animal. The animal's blood pressure was allowed to return to normal, and the animal was given 100 mg of sildenafil citrate via an esophagus tube. One hour after the administration of sildenafil citrate, a bolus injection of 0.2 mg of nitroglycerin was given to the animal in order to observe the combined effect of […] and nitroglycerin on the animal. When the animal's blood pressure returned to normal, a second 0.2 mg bolus injection of nitroglycerin was given along with a bolus of MB (3 mg/kg). Blood pressure and heart rate were monitored throughout the procedure.

[2] = Hemodynamic effects of methylene blue on hypotensive dogs (same procedure as for pigs); type: in vivo, dog; conditions: same procedure as pigs: sildenafil citrate, nitroglycerin bolus
Procedure: as §1
The procedure used was the same as that for pigs. (See EXAMPLE 1, above.) The experiments were conducted on dogs to see what effect the combination of a phosphodiesterase inhibitor and an organic nitrate would have on an animal with a greater number of collaterals than the pig. […]

[3] = humans, dosages above 2 mg/kg; cited from earlier work

SMILES: CN(C)c1ccc2nc3ccc(N(C)C)cc3[s+]c2c1.[Cl-] [MB, 3,7-bis(dimethylamino)phenothiazin-5-ium chloride]
- changes in time in systolic blood pressure after nitroglycerin injection with MB [1]: Pressure recovery was much more rapid in the presence of MB; also recorded: beneficial effects of MB may be seen; also recorded: effectiveness of MB in increasing the blood pressure
- changes in time in systolic blood pressure after nitroglycerin injection with MB [2]: A drop in blood pressure is less pronounced, and there is more rapid recovery time, than without MB; also recorded: MB effectively increased the blood pressure in the animals tested
- respiratory problems at high dosage [3]: can lead to respiratory problems in humans
